Like-named read-outs stand apart in the source and are kept apart here. Starred links: 1 amine or outer side, 2 acyl side, 3 side chain; linkers in the order of their positions; H or OH if unused. Non-standard residues stand in square brackets, D forms with d. Residues, ends and D or L forms follow the SMILES beside them. *: point of attachment. X1 = O=C([C@H](Cc1ccc2ccc3cccc4ccc1c2c34)N[*:1])[*:2]; Phe(4-Cl) = N[C@@H](Cc1ccc(Cl)cc1)C(=O)O; Lys(Me2) = CN(C)CCCC[C@H](N)C(=O)O; Cha = N[C@@H](CC1CCCCC1)C(=O)O; Morpholide = C1CN(*)CCO1; NMeA = CN[C@@H](C)C(=O)O; Dap = NC[C@H](N)C(=O)O
What was measured:
APJ [1] = target: T1, APJ (Homo sapiens, UniProt P35414); experiment: Receptor binding assay-2 (compound in Reference Example 2 used)
T1 construct: expressed in transfected cells; host or cells: CHO (CHO-A10; clone 6 for the cAMP assay)
T1 sequence (P35414 1-380): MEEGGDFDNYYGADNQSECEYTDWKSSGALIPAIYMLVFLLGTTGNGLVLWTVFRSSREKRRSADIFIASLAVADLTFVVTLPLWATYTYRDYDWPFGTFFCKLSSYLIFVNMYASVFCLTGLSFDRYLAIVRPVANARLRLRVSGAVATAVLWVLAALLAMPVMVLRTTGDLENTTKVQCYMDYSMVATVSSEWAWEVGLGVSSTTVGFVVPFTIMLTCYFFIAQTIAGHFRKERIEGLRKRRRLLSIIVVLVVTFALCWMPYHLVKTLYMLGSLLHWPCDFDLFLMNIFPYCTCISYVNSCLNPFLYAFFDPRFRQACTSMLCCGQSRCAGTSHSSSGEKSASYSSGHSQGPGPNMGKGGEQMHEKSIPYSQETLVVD
Description: This product was mixed with an equal volume of an assay buffer (50 mM Tris-HCl/pH 7.5, 5 mM EDTA, 0.5 mM PMSF, 20 μg/ml leupeptin, 0.1 μg/ml pepstatin A, 4 μg/ml E-64 (Peptide Research Laboratory, Co.), 0.1% bovine serum albumin) and stored at −30° C. before use.
CHO-A10 cells were cultured, recovered with PBS containing 5 mM EDTA from a culture vessel, and suspended in the above-mentioned assay buffer not containing bovine serum albumin. The cells were homogenized 3 times at 12,000 rpm for 15 seconds by a Polytron homogenizer (manufactured by Kinematica Inc.) and then centrifuged (1000×g, 4° C., 10 minutes), and the supernatant was recovered. The precipitates were subjected again to the same procedure as above, and the respective supernatants were combined and centrifuged at 100,000×g, 4° C. for 1 hour, to recover precipitates (membrane fraction). The membrane fraction was suspended again in a small amount of the buffer, homogenized with a Teflon homogenizer and stored at −80° C. before use.
Binding assay was carried out under the following conditions. […] Measurement of non-specific binding was carried out using a well containing 1 μM unlabeled compound in place of the test sample. After the incubation was finished, a cell harvester (Packard) adapted to 96 wells and a filter unit (GF/C, Packard) were used for separation thereby capturing the membrane fraction on the filter. After the filter was sufficiently dried, Microcinti 0 (Packard) was added thereto, and using Top Count (Packard), the amount of the labeled material captured together with the membrane fraction on the filter was measured.

APJ [2] = target: T1, APJ; experiment: Inhibitory activity on forskolin-stimulated cAMP production in CHO-A10 clone 6 cells; type: cell-based
Description: Measurement of an Inhibitory Activity on Forskolin-Stimulated cAMP Production
Hanks' balanced salt solution (HBSS) containing 0.2 mM 3-isobutyl-1-methylxanthine (IBMX) and 0.05% bovine serum albumin was prepared as an assay buffer, and each well was washed twice with 500 μl assay buffer and pre-incubated at 37° C. for 30 minutes. Further, each well was washed once with 500 μl assay buffer, and a sample dissolved in the assay buffer containing 1 μM forskolin was added at a volume of 500 μl/well and incubated at 37° C. for 30 minutes. Wells incubated with the assay buffer not containing forskolin were prepared in the same manner in order to determine the basal level of cellular cAMP production, while wells incubated with the assay buffer containing forskolin were also prepared in order to determine the maximum level of cAMP production stimulated with forskolin. After incubation was finished, each well was washed once with 500 μl assay buffer, and 500 μl lysis buffer 1B attached to a cAMP EIA system from Amersham was added to each well, to extract cAMP. According to the protocol of the kit, 100 μl of each extract was used to determine the level of cAMP. For the inhibitory activity of the sample on cAMP production, the difference (inhibited cAMP production) between the maximum level and the level of cAMP in the sample-containing wells was determined, and the inhibitory activity was expressed as percentage relative to the increased level of cAMP production stimulated with forskolin (that is, the difference between the maximum level and basal level), and from this dose-reaction curve, the EC50 was determined.

[3] = compound in Reference Example 2 used as ligand, read-out: IC50

| SMILES | IC50 (APJ [1]; [3]) | EC50 (APJ [2]; read-out: EC50) | IC50 (APJ [1]) | EC50 (APJ [2]) |
| --- | --- | --- | --- | --- |
| CC(C)C[C@H](NC(=O)[C@H](CCCNC(=N)N)NC(=O)[C@@H]1CCCN1C(=O)[C@H](CCCNC(=N)N)NC(=O)[C@H](CCC(N)=O)NC(=O)[C@H](CCCNC(=N)N)NC(=O)[C@@H](N)CCCNC(=N)N)C(=O)N[C@@H](CO)C(=O)N[C@@H](C)C(=O)N[C@@H](CCCNC(=N)N)C(=O)NCC(=O)N(C)C [Compound in Ex. 51] (H-RRQRPRLSARG-NMe2) | 0.16 nM | 0.49 nM |  |  |
| CC(C)C[C@H](NC(=O)[C@H](CCCNC(=N)N)NC(=O)[C@@H]1CCCN1C(=O)[C@H](CCCNC(=N)N)NC(=O)[C@H](CCC(N)=O)NC(=O)[C@H](CCCNC(=N)N)NC(=O)[C@@H](N)CCCNC(=N)N)C(=O)N[C@@H](CO)C(=O)N[C@@H](C)C(=O)N[C@@H](CCCNC(=N)N)C(=O)NCC(=O)N1CCOCC1 [Compound in Ex. 52] (H-RRQRPRLSARG-Morpholide; N-terminus assumed) | 0.26 nM | 1.2 nM |  |  |
| CC(C)C[C@H](NC(=O)[C@H](CCCNC(=N)N)NC(=O)[C@@H]1CCCN1C(=O)[C@@H](N)CCCNC(=N)N)C(=O)N[C@@H](CO)C(=O)N[C@@H](C)C(=O)N[C@@H](CCCNC(=N)N)C(=O)NCC(=O)N1CCC[C@H]1C(=O)N[C@@H](C)C(=O)N1CCC[C@H]1C(=O)N[C@@H](Cc1ccc(Cl)cc1)C(=O)O [Compound in Ex. 53] (H-RPRLSARGPAP[Phe(4-Cl)]-OH; N-terminus and C-terminus assumed) | 0.064 nM | 0.37 nM |  |  |
| CSCC[C@H](NC(=O)CNC(=O)CNC(=O)[C@H](CCCNC(=N)N)NC(=O)[C@H](C)NC(=O)[C@H](CO)NC(=O)[C@H](CC(C)C)NC(=O)[C@H](CCCNC(=N)N)NC(=O)[C@@H]1CCCN1C(=O)[C@@H](N)CCCNC(=N)N)C(=O)N1CCC[C@H]1C(=O)N[C@@H](Cc1ccc(Cl)cc1)C(=O)O [Compound in Ex. 54] (H-RPRLSARGGMP[Phe(4-Cl)]-OH; N-terminus and C-terminus assumed) | 0.29 nM | 0.19 nM |  |  |
| CSCC[C@H](NC(=O)[C@H](C)N(C)C(=O)CNC(=O)[C@H](CCCNC(=N)N)NC(=O)[C@H](C)NC(=O)[C@H](CO)NC(=O)[C@H](CC(C)C)NC(=O)[C@H](CCCNC(=N)N)NC(=O)[C@@H]1CCCN1C(=O)[C@@H](N)CCCNC(=N)N)C(=O)N1CCC[C@H]1C(=O)N[C@@H](Cc1ccc(Cl)cc1)C(=O)O [Compound in Ex. 55] (H-RPRLSARG[NMeA]MP[Phe(4-Cl)]-OH; N-terminus and C-terminus assumed) | 0.09 nM | 0.27 nM |  |  |
| CC(C)C[C@H](NC(=O)[C@H](CCCNC(=N)N)NC(=O)[C@@H]1CCCN1C(=O)[C@@H](N)CCCNC(=N)N)C(=O)N[C@@H](CO)C(=O)N[C@@H](Cc1c[nH]cn1)C(=O)N[C@@H](C)C(=O)NCC(=O)N1CCC[C@H]1C(=O)N[C@@H](CC1CCCCC1)C(=O)N1CCC[C@H]1C(=O)N[C@@H](Cc1ccc(Cl)cc1)C(=O)O [Compound in Ex. 56] (H-RPRLSHAGP[Cha]P[Phe(4-Cl)]-OH; N-terminus and C-terminus assumed) | 0.22 nM | 0.58 nM |  |  |
| C[C@H](NC(=O)[C@H](CCCNC(=N)N)NC(=O)[C@@H]1CCCN1C(=O)[C@@H](N)CCCNC(=N)N)C(=O)N[C@@H](CO)C(=O)N[C@@H](Cc1c[nH]cn1)C(=O)N[C@@H](CCCCN)C(=O)NCC(=O)N1CCC[C@H]1C(=O)N[C@@H](CC1CCCCC1)C(=O)N1CCC[C@H]1C(=O)N[C@@H](Cc1ccc(Cl)cc1)C(=O)O [Compound in Ex. 57] (H-RPRASHKGP[Cha]P[Phe(4-Cl)]-OH; N-terminus and C-terminus assumed) | 0.17 nM | 0.52 nM |  |  |
| CC(C)C[C@H](NC(=O)[C@H](C)NC(=O)[C@@H]1CCCN1C(=O)[C@@H](N)CCCNC(=N)N)C(=O)N[C@@H](CO)C(=O)N[C@@H](Cc1c[nH]cn1)C(=O)N[C@@H](CCCCN)C(=O)NCC(=O)N1CCC[C@H]1C(=O)N[C@@H](CC1CCCCC1)C(=O)N1CCC[C@H]1C(=O)N[C@@H](Cc1ccc(Cl)cc1)C(=O)O [Compound in Ex. 58] (H-RPALSHKGP[Cha]P[Phe(4-Cl)]-OH; N-terminus and C-terminus assumed) | 0.15 nM | 0.41 nM |  |  |
| CSCC[C@H](NC(=O)[C@@H]1CCCN1C(=O)CNC(=O)[C@H](CCCNC(=N)N)NC(=O)[C@H](C)NC(=O)[C@H](CO)NC(=O)[C@H](CC(C)C)NC(=O)[C@H](CCCNC(=N)N)NC(=O)[C@@H]1CCCN1C(=O)[C@H](CCCNC(=N)N)NC(=O)[C@H](CCC(N)=O)NC(=O)[C@H](CCCNC(=N)N)NC(=O)[C@@H](N)CCCNC(=N)N)C(=O)N1CCC[C@H]1C(=O)N[C@@H](Cc1ccc(Cl)cc1)C(N)=O [Compound in Ex. 59] | 0.18 nM | 0.32 nM |  |  |
| CC(C)C[C@H](NC(=O)[C@H](CCCNC(=N)N)NC(=O)[C@@H]1CCCN1C(=O)[C@@H](N)CCCNC(=N)N)C(=O)N[C@@H](CO)C(=O)N[C@@H](C)C(=O)N[C@@H](CCCNC(=N)N)C(=O)NCC(=O)N1CCC[C@H]1C(=O)N[C@@H](CC1CCCCC1)C(=O)N[C@@H](Cc1ccc2ccc3cccc4ccc1c2c34)C(=O)O [Compound in Ex. 60] (H-RPRLSARGP[Cha][X1]-OH) |  |  | 0.8 nM | 1.1 nM |
| CC(C)C[C@H](NC(=O)[C@H](CCCNC(=N)N)NC(=O)[C@@H]1CCCN1C(=O)[C@@H](N)CCCNC(=N)N)C(=O)N[C@@H](CO)C(=O)N[C@@H](C)C(=O)N[C@@H](CCCNC(=N)N)C(=O)NCC(=O)N1CCC[C@H]1C(=O)N[C@@H](CC1CCCCC1)C(=O)N1CCC[C@H]1C(=O)N[C@@H](Cc1ccc2ccc3cccc4ccc1c2c34)C(=O)O [Compound in Ex. 61] (H-RPRLSARGP[Cha]P[X1]-OH; N-terminus and C-terminus assumed) |  |  | 0.56 nM | 2.2 nM |
| CC(C)C[C@H](NC(=O)[C@H](CCCNC(=N)N)NC(=O)[C@@H]1CCCN1C(=O)[C@H](CCCNC(=N)N)NC(=O)[C@H](CCC(N)=O)NC(=O)[C@H](CCCNC(=N)N)NC(=O)[C@@H](N)CCCNC(=N)N)C(=O)N[C@@H](CO)C(=O)N[C@@H](C)C(=O)N[C@@H](CCCNC(=N)N)C(=O)NCC(=O)NCC(=O)N[C@@H](CC1CCCCC1)C(=O)O [Compound in Ex. 62] (H-RRQRPRLSARGG[Cha]-OH; N-terminus and C-terminus assumed) | 0.14 nM | 0.23 nM |  |  |
| CSCC[C@H](NC(=O)[C@@H]1CCCN1C(=O)CNC(=O)[C@H](CCCNC(=N)N)NC(=O)[C@H](C)NC(=O)[C@H](CO)NC(=O)[C@H](CC(C)C)NC(=O)[C@H](CCCCN(C)C)NC(=O)[C@@H]1CCCN1C(=O)[C@@H](N)CCCNC(=N)N)C(=O)N1CCC[C@H]1C(=O)N[C@@H](Cc1ccccc1)C(=O)O [Compound in Ex. 63] (H-RP[Lys(Me2)]LSARGPMPF-OH; N-terminus and C-terminus assumed) | 0.074 nM | 0.33 nM |  |  |
| CC(C)C[C@H](NC(=O)[C@H](CCCNC(=N)N)NC(=O)[C@@H]1CCCN1C(=O)[C@@H](N)CCCNC(=N)N)C(=O)N[C@@H](CO)C(=O)N[C@@H](CN)C(=O)N[C@@H](CCCNC(=N)N)C(=O)NCC(=O)N1CCC[C@H]1C(=O)N[C@@H](CC1CCCCC1)C(=O)N1CCC[C@H]1C(=O)N[C@@H](Cc1ccc(Cl)cc1)C(=O)O [Compound in Ex. 65, Arg-Pro-Arg-Leu-Ser-Dap-Arg-Gly-Pro-Cha-Pro-Phe(Cl)] (H-RPRLS[Dap]RGP[Cha]P[Phe(4-Cl)]-OH) | 0.26 nM | 0.52 nM |  |  |

— patent publication US20040116336A1, “Peptide derivatives” (priority 2002, published 2004)
